In ChEMBL document CHEMBL5625174, “Are inhibitors of histone deacetylase 8 (HDAC8) effective in hematological cancers especially acute myeloid leukemia (AML) and acute lymphoblastic leukemia (ALL)?” (Eur J Med Chem, 2023):
pIC50: −log10 of the molar value. One block for each compound: values may come before it. Square brackets hold non-standard residues; d marks the D form. Peptide text beside a SMILES is read from it. * marks the point of attachment. Asu = N[C@@H](CCCCCC(=O)O)C(=O)O; β3hL = CC(C)C[C@H](N)CC(=O)O; NHOH = ON*

Assays:
Jurkat E6.1 [1] = test: Cytotoxicity against human Jurkat E6.1 cells assessed as reduction in cell viability incubated for 72 hrs by MTT assay; assay type: functional, cell-based; conditions: Jurkat E6.1, 72 h
[2] = Inhibition of HDAC6 (unknown origin) assessed as release of fluorogenic AMC pre-incubated for 15 mins followed by addition of trypsin and substrate measured after 60 mins microplate reader analysis; set-up: species or system Homo sapiens
Jurkat [3] = test: Antiproliferative activity against human Jurkat cells assessed as cell growth inhibition measured after 72 hrs by CCK-8 assay; assay type: functional
HH = test: Antiproliferative activity against human HH cells assessed as cell growth inhibition measured after 72 hrs by CCK-8 assay; assay type: functional
MT4 = test: Cytotoxicity against human MT4 cells assessed as inhibition of cell growth incubated for 72 hrs by CCK-8 assay; assay type: functional
HuT78 = test: Anti-proliferative activity against human HuT78 cells assessed as growth inhibition incubated for 72 hrs by alamar blue staining based fluorometric assay; assay type: functional
Jurkat [4] = test: cells; assay type: functional; conditions: Homo sapiens
Description: Growth inhibition of human Jurkat cells

Histone deacetylase 8 [5] = target: T1, Histone deacetylase 8 (Homo sapiens, UniProt Q9BY41); test: Inhibition of human recombinant HDAC8 using fluorogenic HDAC substrate class 2A preincubated for 30 mins followed by substrate addition and measured after 15 mins by fluorogenic assay
T1 sequence (Q9BY41 whole entry): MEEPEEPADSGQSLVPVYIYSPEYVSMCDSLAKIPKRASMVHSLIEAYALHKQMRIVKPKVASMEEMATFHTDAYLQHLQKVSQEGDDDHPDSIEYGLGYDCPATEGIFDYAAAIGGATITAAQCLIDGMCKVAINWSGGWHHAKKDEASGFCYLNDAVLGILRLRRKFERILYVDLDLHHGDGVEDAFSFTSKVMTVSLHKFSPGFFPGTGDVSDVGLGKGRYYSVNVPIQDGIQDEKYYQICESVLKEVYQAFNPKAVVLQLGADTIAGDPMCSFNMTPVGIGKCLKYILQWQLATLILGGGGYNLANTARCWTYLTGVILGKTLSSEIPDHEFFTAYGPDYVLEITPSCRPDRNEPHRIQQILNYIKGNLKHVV

Histone deacetylase 1 = Histone deacetylase 1 (Homo sapiens, UniProt Q13547); test: Inhibition of HDAC1 (unknown origin) using Ac-Leu-Gly-Lys(Ac)-AMC as substrate pre-incubated for 30 mins followed by substrate addition and measured after 30 mins by fluorescence based analysis
Histone deacetylase 2 = Histone deacetylase 2 (Homo sapiens, UniProt Q92769); test: Inhibition of HDAC2 (unknown origin) assessed as release of fluorogenic AMC pre-incubated for 15 mins followed by addition of trypsin and substrate measured after 60 mins microplate reader analysis
Histone deacetylase 4 = Histone deacetylase 4 (Homo sapiens, UniProt P56524); test: Inhibition of HDAC4 (unknown origin) assessed as release of fluorogenic AMC pre-incubated for 15 mins followed by addition of trypsin and substrate measured after 60 mins microplate reader analysis
Histone deacetylase = test: Inhibition of HDAC (unknown origin) using Fluoro-Substrate Peptide as substrate by fluorescence assay; assay type: protein assay, Homo sapiens
Histone deacetylase 8 [6] = target: T1, Histone deacetylase 8; test: Inhibition of HDAC8 (unknown origin) by fluorescence based assay
Jurkat E6.1 [7] = test: Cytotoxicity against human Jurkat E6.1 cells assessed as reduction in cell growth measured after 48 hrs by MTT assay; assay type: functional, cell-based; conditions: Jurkat E6.1, 48 h
U-937 = test: Cytotoxicity against human U-937 cells assessed as reduction in cell viability; assay type: functional, cell-based
Jurkat E6.1 [8] = test: Cytotoxicity against human Jurkat E6.1 cells assessed as reduction in cell viability; assay type: functional, cell-based
MOLT-4 = test: Cytotoxicity against human MOLT-4 cells assessed as reduction in cell viability; assay type: functional, cell-based
Histone deacetylase 8 [9] = target: T1, Histone deacetylase 8; test: Inhibition of human recombinant HDAC8 using AMC-K(Ac)GL as substrate by fluorescence based assay
Jurkat [10] = test: Cytotoxicity against human Jurkat cells assessed as reduction in cell viability incubated for 24 hrs by CellTiter-Glo luminescent cell viability assay; assay type: functional
Jurkat [11] = test: Cytotoxicity against human Jurkat cells assessed as reduction in cell viability measured after 24 hrs by Celltiter-Glo assay; assay type: functional, cell-based

Histone deacetylase 1, sequence (Q13547 whole entry): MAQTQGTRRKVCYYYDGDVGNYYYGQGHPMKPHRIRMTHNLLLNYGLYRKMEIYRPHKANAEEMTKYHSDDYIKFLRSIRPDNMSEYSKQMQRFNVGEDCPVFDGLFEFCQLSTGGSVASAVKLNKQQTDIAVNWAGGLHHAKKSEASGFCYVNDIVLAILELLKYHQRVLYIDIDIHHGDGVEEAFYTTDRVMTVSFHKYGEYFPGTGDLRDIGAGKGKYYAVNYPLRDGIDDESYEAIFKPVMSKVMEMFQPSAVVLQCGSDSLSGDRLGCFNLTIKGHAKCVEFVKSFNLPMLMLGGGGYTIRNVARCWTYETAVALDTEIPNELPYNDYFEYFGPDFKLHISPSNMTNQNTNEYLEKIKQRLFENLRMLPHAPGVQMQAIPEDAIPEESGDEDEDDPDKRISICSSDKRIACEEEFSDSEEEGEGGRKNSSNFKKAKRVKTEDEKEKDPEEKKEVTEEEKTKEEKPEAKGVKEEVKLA
Histone deacetylase 2, sequence (Q92769 whole entry): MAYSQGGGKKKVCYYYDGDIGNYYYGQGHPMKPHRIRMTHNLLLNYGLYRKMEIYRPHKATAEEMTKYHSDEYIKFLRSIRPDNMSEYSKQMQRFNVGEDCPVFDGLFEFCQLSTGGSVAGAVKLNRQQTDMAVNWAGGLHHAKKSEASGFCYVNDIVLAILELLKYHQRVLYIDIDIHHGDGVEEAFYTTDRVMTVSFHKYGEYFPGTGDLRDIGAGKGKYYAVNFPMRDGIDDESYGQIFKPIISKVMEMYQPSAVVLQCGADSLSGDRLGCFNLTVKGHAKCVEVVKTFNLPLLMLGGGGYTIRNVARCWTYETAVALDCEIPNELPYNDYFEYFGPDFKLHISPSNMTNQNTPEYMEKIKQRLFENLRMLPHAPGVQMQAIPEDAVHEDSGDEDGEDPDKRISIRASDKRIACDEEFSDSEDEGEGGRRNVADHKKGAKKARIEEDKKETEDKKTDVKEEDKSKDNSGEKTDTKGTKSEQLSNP
Histone deacetylase 4, sequence (P56524 whole entry): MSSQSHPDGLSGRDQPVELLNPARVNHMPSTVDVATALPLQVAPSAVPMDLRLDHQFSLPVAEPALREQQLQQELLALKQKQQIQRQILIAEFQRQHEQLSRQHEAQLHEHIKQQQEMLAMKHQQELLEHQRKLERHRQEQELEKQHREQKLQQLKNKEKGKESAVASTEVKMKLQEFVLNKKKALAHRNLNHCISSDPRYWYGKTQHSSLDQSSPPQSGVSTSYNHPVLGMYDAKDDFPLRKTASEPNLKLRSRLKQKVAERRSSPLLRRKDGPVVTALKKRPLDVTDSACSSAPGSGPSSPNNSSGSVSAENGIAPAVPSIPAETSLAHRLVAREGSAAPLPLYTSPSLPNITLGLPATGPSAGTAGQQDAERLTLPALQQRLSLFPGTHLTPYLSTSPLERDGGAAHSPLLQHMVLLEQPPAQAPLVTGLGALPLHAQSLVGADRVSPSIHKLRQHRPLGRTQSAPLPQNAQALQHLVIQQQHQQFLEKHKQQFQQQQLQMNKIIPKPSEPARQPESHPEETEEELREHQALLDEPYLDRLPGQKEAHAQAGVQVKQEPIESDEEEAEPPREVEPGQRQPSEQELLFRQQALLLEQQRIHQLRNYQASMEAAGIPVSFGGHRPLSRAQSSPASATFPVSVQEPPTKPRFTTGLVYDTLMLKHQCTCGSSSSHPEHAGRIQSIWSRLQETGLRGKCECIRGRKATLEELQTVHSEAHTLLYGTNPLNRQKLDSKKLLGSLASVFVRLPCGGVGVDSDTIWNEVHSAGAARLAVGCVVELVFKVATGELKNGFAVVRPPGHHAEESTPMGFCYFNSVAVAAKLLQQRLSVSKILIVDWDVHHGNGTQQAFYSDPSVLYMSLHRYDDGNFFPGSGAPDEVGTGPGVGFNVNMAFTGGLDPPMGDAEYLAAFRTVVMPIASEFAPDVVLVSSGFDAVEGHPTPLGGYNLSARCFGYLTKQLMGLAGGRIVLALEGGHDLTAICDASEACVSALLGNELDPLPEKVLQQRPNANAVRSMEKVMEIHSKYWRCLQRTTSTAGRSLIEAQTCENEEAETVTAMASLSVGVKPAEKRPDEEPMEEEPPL

SMILES: CCCCCNC(=O)[C@H](CCC(=O)NO)NC(=O)Cc1ccc(Cl)cc1Cl
pIC50 (Jurkat E6.1 [1]): > 4.30

pIC50 [2]: 5.62
GI50 (Jurkat [3]): 2.8 µM
SMILES: O=C(NO)c1cccc(-c2cn(CSc3ccccc3)nn2)c1
GI50 (HH): 21 µM
GI50 (MT4): 22 µM
GI50 (HuT78): 32 µM

SMILES: O=C(CC[C@H](NC(=O)Cc1ccc(Cl)cc1Cl)C(=O)Nc1ccccc1)NO
pIC50 (Jurkat E6.1 [1]): > 4.30

SMILES: CCCCNC(=O)[C@H](CCC(=O)NO)NC(=O)Cc1ccc([N+](=O)[O-])cc1
pIC50 (Jurkat E6.1 [1]): > 4.30

SMILES: CCCCCNC(=O)[C@H](CCC(=O)NO)NC(=O)Cc1ccc(Cl)cc1
pIC50 (Jurkat E6.1 [1]): > 4.30

pIC50 [2]: 5.54
GI50 (Jurkat [4]): 2.4 µM
SMILES: COc1ccc(Cn2ccc3ccc(C(=O)NO)cc32)cc1

pIC50 (Histone deacetylase 8 [5]): 7.97
SMILES: O=C1CN[C@@H](Cc2cc3ccccc3[nH]2)C(=O)N1

pIC50 (Histone deacetylase 1): < 4.00
pIC50 (Histone deacetylase 2): < 4.00
pIC50 (Histone deacetylase 4): < 4.00
pIC50 [2]: 5.66
GI50 (Jurkat [4]): 24 µM
SMILES: O=C(NO)c1cccc(-n2cc(CSc3ccccc3)nn2)c1

IC50 (Histone deacetylase): > 10 µM
pIC50 (Histone deacetylase 8 [6]): ≥ 5.00
SMILES: O=C(O)CC[C@H](NC(=O)Cc1ccc(Br)cc1)C(=O)NCc1ccc(F)cc1
pIC50 (Jurkat E6.1 [7]): 5.79
pIC50 (U-937): < 4.46
pIC50 (Jurkat E6.1 [8]): > 4.46
pIC50 (MOLT-4): < 4.46

pIC50 [2]: < 4.52
SMILES: N[C@H](Cc1ccc(Cl)cc1Cl)C(=O)N1Cc2ccccc2C1

SMILES: CCCCCCNC(=O)[C@H](CCC(=O)NO)NC(=O)Cc1ccccc1
pIC50 (Jurkat E6.1 [1]): > 4.30

pIC50 (Histone deacetylase 8 [9]): 6.92
SMILES: CC(C)C[C@H]1CC(=O)N[C@@H](C)C(=O)N[C@@H](CCCCCC(=O)NO)C(=O)N[C@@H](Cc2c[nH]c3ccccc23)C(=O)N1 (cyclo([Asu](NHOH)W[β3hL]A))

SMILES: O=C(/C=C/C#Cc1cccc(NS(=O)(=O)c2ccccc2)c1)NO
CC50 (Jurkat [10]): 5.9 µM

pIC50 (Histone deacetylase 1): < 4.00
pIC50 [2]: 4.26
SMILES: O=C(NO)c1ccc(-c2cccc3ccccc23)cc1

SMILES: CCCCCCNC(=O)[C@H](CCC(=O)NO)NC(=O)Cc1ccc(Br)cc1
pIC50 (Jurkat E6.1 [1]): > 4.30

GI50 (Jurkat [4]): 2 µM
SMILES: O=C(NO)c1cccc(-c2csc(CSc3ccccc3)n2)c1

pIC50 (Histone deacetylase 8 [5]): 7.17
SMILES: O=C1CN[C@@H](Cc2ccccc2)C(=O)N1

SMILES: O=C(CCCCCN1C(=O)c2cccc3cccc(c23)C1=O)NO
pIC50 (Jurkat [11]): 5.21

SMILES: CCCCCNC(=O)[C@H](CCC(=O)NO)NC(=O)Cc1ccccc1
pIC50 (Jurkat E6.1 [1]): > 4.30

IC50 (Histone deacetylase): > 10 µM
pIC50 (Histone deacetylase 8 [6]): ≥ 5.00
SMILES: CCCCCCNC(=O)[C@H](CCC(=O)O)NC(=O)Cc1ccc(Br)cc1
pIC50 (U-937): < 4.46
pIC50 (Jurkat E6.1 [8]): ≥ 4.46
pIC50 (MOLT-4): ≥ 4.46

pIC50 (Histone deacetylase 8 [5]): 7.29
SMILES: O=C1CN[C@H](Cc2cc3ccccc3[nH]2)C(=O)N1
